What was measured:
Format in all cases: in vivo
[1] = tested on: Echinochloa crus-galli; assay: Test Example 1: herbicidal effect test by treatment of rice paddy soil (immediately after seeding); conditions: 120 g/10a active ingredient, dry weight vs untreated area, 14 days after treatment
Procedure, shortened: (§1)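 Applied at 120 g a.i./10 ares as diluted emulsion dropped into flooded (~3 cm) paddy soil pots right after sowing seeds 0–1 cm deep; greenhouse, two replicates. At day 14, dry weight of treated versus untreated plants gives % herbicidal rate.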

[2] = tested on: Scirpus juncoides; assay: as above; conditions: 120 g/10a active ingredient, dry weight vs untreated area, 14 days after treatment
Procedure, shortened: as §1

[3] = tested on: broad leaf weeds (Lindernia pyxidaria and Monochoria vaginalis); assay: as above; conditions: 120 g/10a active ingredient, dry weight vs untreated area, 14 days after treatment
Procedure, shortened: as §1

[4] = tested on: Echinochloa crus-galli; assay: Test Example 2: herbicidal effect test by treatment during growing period in paddy rice cultivation (seven days after seeding); conditions: 120 g/10a active ingredient, assessed 14 days after treatment, dry weight vs untreated area
Procedure, shortened: (§2)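 Paddy soil in Wagner pots with compound fertilizer, puddled; 30 seeds per species sown at 0–1 cm, flooded ~3 cm, greenhouse. Seven days after seeding, water-diluted emulsions were dropped into the water at 120 g active ingredient per 10 ares. Duplicate pots; herbicidal rate from dry weight versus untreated, 14 days after treatment.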

[5] = tested on: Scirpus juncoides; assay: as above; conditions: 120 g/10a active ingredient, assessed 14 days after treatment, dry weight vs untreated area
Procedure, shortened: as §2

[6] = tested on: broad leaf weeds (Lindernia pyxidaria and Monochoria vaginalis); assay: as above; conditions: 120 g/10a active ingredient, assessed 14 days after treatment, dry weight vs untreated area
Procedure, shortened: as §2

[7] = tested on: Amaranthus viridis; assay: Test Example 3: herbicidal effect test by treatment of dry field farming soil (one day after seeding); conditions: 120 g/10a active ingredient, evaluated 14 days after treatment
Procedure, shortened: (§3)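 Pre-emergence soil treatment: alluvial dry-field soil, 20 seeds per species mixed into top 1 cm, emulsion diluted in water sprayed one day after seeding at 100 L per 10 ares (120 g active ingredient per 10 ares). Duplicate pots; herbicidal rate (%) from dry weight vs untreated at 14 days.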

[8] = tested on: Chenopodium album; assay: as above; conditions: 120 g/10a active ingredient, evaluated 14 days after treatment
Procedure, shortened: as §3

[9] = tested on: Echinochloa crus-galli; assay: as above; conditions: 120 g/10a active ingredient, evaluated 14 days after treatment
Procedure, shortened: as §3

[10] = tested on: southern crabgrass; assay: as above; conditions: 120 g/10a active ingredient, evaluated 14 days after treatment
Procedure, shortened: as §3

[11] = tested on: Amaranthus viridis; assay: Test Example 4: herbicidal effect test by treatment of leave and stem in dry field farming (seven days after seeding); conditions: 120 g/10a active ingredient; emulsion sprayed seven days after seeding; evaluated 14 days after treatment
Procedure, shortened: (§4)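 Twenty seeds per species were mixed into the top 1 cm of alluvial soil in 36 cm^2 pots; emulsions were sprayed seven days after seeding at 100 L per 10 ares (120 g active ingredient per 10 ares). Herbicidal rate (%) = {1 − treated/untreated mean dry weight} × 100, 14 days after treatment, duplicate.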

[12] = tested on: Chenopodium album; assay: as above; conditions: 120 g/10a active ingredient; emulsion sprayed seven days after seeding; evaluated 14 days after treatment
Procedure, shortened: as §4

[13] = tested on: Echinochloa crus-galli; assay: as above; conditions: 120 g/10a active ingredient; emulsion sprayed seven days after seeding; evaluated 14 days after treatment
Procedure, shortened: as §4

[14] = tested on: southern crabgrass; assay: as above; conditions: 120 g/10a active ingredient; emulsion sprayed seven days after seeding; evaluated 14 days after treatment
Procedure, shortened: as §4

## Cc1c(Cc2ccccc2N(C(=O)CC(C)C)S(=O)(=O)C(F)(F)F)c(=O)on1CC(C)(C)C [Compound 1-355]
[1]
  Herbicidal rate (%) Echinochloa crus-galli: 90%
[2]
  Herbicidal rate (%) Scirpus juncoides: 90%
[3]
  Herbicidal rate (%) Lindernia pyxidaria: 90%
  Herbicidal rate (%) Monochoria vaginalis: 90%
[4]
  Herbicidal rate (%) Echinochloa crus-galli: 90%
[5]
  Herbicidal rate (%) Scirpus juncoides: 90%
[6]
  Herbicidal rate (%) Lindernia pyxidaria: 90%
  Herbicidal rate (%) Monochoria vaginalis: 90%
[7]
  herbicidal rate, Amaranthus viridis: 90%
[8]
  herbicidal rate, Chenopodium album: 90%
[9]
  herbicidal rate, Echinochloa crus-galli: 90%
[10]
  herbicidal rate, southern crabgrass: 90%
[11]
  herbicidal effect (herbicidal rate), Amaranthus viridis: 40%
[12]
  herbicidal effect (herbicidal rate), Chenopodium album: 40%
[13]
  herbicidal effect (herbicidal rate), Echinochloa crus-galli: 90%
[14]
  herbicidal effect (herbicidal rate), southern crabgrass: 90%

## CCCC(C)n1oc(=O)c(Cc2ccccc2N(C(=O)CC(C)C)S(=O)(=O)C(F)(F)F)c1C (centres unmarked) [Compound 1-356]
[1]
  Herbicidal rate (%) Echinochloa crus-galli: 100%
[2]
  Herbicidal rate (%) Scirpus juncoides: 90%
[3]
  Herbicidal rate (%) Lindernia pyxidaria: 90%
  Herbicidal rate (%) Monochoria vaginalis: 60%
[4]
  Herbicidal rate (%) Echinochloa crus-galli: 100%
[5]
  Herbicidal rate (%) Scirpus juncoides: 90%
[6]
  Herbicidal rate (%) Lindernia pyxidaria: 60%
  Herbicidal rate (%) Monochoria vaginalis: 70%
[7]
  herbicidal rate, Amaranthus viridis: 90%
[8]
  herbicidal rate, Chenopodium album: 60%
[9]
  herbicidal rate, Echinochloa crus-galli: 90%
[10]
  herbicidal rate, southern crabgrass: 90%
[11]
  herbicidal effect (herbicidal rate), Amaranthus viridis: 60%
[12]
  herbicidal effect (herbicidal rate), Chenopodium album: 60%
[13]
  herbicidal effect (herbicidal rate), Echinochloa crus-galli: 90%
[14]
  herbicidal effect (herbicidal rate), southern crabgrass: 80%

## COCC(C)n1oc(=O)c(Cc2ccccc2N(C(=O)CC(C)C)S(=O)(=O)C(F)(F)F)c1C (centres unmarked) [Compound 1-357]
[1]
  Herbicidal rate (%) Echinochloa crus-galli: 90%
[2]
  Herbicidal rate (%) Scirpus juncoides: 90%
[3]
  Herbicidal rate (%) Lindernia pyxidaria: 90%
  Herbicidal rate (%) Monochoria vaginalis: 90%
[4]
  Herbicidal rate (%) Echinochloa crus-galli: 90%
[5]
  Herbicidal rate (%) Scirpus juncoides: 90%
[6]
  Herbicidal rate (%) Lindernia pyxidaria: 90%
  Herbicidal rate (%) Monochoria vaginalis: 90%
[7]
  herbicidal rate, Amaranthus viridis: 90%
[8]
  herbicidal rate, Chenopodium album: 90%
[9]
  herbicidal rate, Echinochloa crus-galli: 90%
[10]
  herbicidal rate, southern crabgrass: 90%
[11]
  herbicidal effect (herbicidal rate), Amaranthus viridis: 40%
[12]
  herbicidal effect (herbicidal rate), Chenopodium album: 40%
[13]
  herbicidal effect (herbicidal rate), Echinochloa crus-galli: 90%
[14]
  herbicidal effect (herbicidal rate), southern crabgrass: 90%

## CSCCn1oc(=O)c(Cc2ccccc2N(C(=O)CC(C)C)S(=O)(=O)C(F)(F)F)c1C [Compound 1-358]
[1]
  Herbicidal rate (%) Echinochloa crus-galli: 90%
[2]
  Herbicidal rate (%) Scirpus juncoides: 90%
[3]
  Herbicidal rate (%) Lindernia pyxidaria: 90%
  Herbicidal rate (%) Monochoria vaginalis: 90%
[4]
  Herbicidal rate (%) Echinochloa crus-galli: 90%
[5]
  Herbicidal rate (%) Scirpus juncoides: 90%
[6]
  Herbicidal rate (%) Lindernia pyxidaria: 90%
  Herbicidal rate (%) Monochoria vaginalis: 90%
[7]
  herbicidal rate, Amaranthus viridis: 90%
[8]
  herbicidal rate, Chenopodium album: 90%
[9]
  herbicidal rate, Echinochloa crus-galli: 90%
[10]
  herbicidal rate, southern crabgrass: 90%
[11]
  herbicidal effect (herbicidal rate), Amaranthus viridis: 40%
[12]
  herbicidal effect (herbicidal rate), Chenopodium album: 40%
[13]
  herbicidal effect (herbicidal rate), Echinochloa crus-galli: 90%
[14]
  herbicidal effect (herbicidal rate), southern crabgrass: 90%

## Cc1c(Cc2ccccc2N(C(=O)CC(C)C)S(=O)(=O)C(F)(F)F)c(=O)on1C(C)c1ccccc1 (centres unmarked) [Compound 1-359]
[1]
  Herbicidal rate (%) Echinochloa crus-galli: 90%
[2]
  Herbicidal rate (%) Scirpus juncoides: 90%
[3]
  Herbicidal rate (%) Lindernia pyxidaria: 90%
  Herbicidal rate (%) Monochoria vaginalis: 90%
[4]
  Herbicidal rate (%) Echinochloa crus-galli: 90%
[5]
  Herbicidal rate (%) Scirpus juncoides: 90%
[6]
  Herbicidal rate (%) Lindernia pyxidaria: 90%
  Herbicidal rate (%) Monochoria vaginalis: 90%
[7]
  herbicidal rate, Amaranthus viridis: 90%
[8]
  herbicidal rate, Chenopodium album: 90%
[9]
  herbicidal rate, Echinochloa crus-galli: 90%
[10]
  herbicidal rate, southern crabgrass: 90%
[11]
  herbicidal effect (herbicidal rate), Amaranthus viridis: 40%
[12]
  herbicidal effect (herbicidal rate), Chenopodium album: 40%
[13]
  herbicidal effect (herbicidal rate), Echinochloa crus-galli: 90%
[14]
  herbicidal effect (herbicidal rate), southern crabgrass: 90%

## Cc1c(Cc2ccccc2N(C(=O)C2CC2)S(=O)(=O)C(F)(F)F)c(=O)on1C(C)(C)C [Compound 1-403]
[1]
  Herbicidal rate (%) Echinochloa crus-galli: 90%
[2]
  Herbicidal rate (%) Scirpus juncoides: 90%
[3]
  Herbicidal rate (%) Lindernia pyxidaria: 90%
  Herbicidal rate (%) Monochoria vaginalis: 90%
[4]
  Herbicidal rate (%) Echinochloa crus-galli: 90%
[5]
  Herbicidal rate (%) Scirpus juncoides: 90%
[6]
  Herbicidal rate (%) Lindernia pyxidaria: 90%
  Herbicidal rate (%) Monochoria vaginalis: 90%
[7]
  herbicidal rate, Amaranthus viridis: 90%
[8]
  herbicidal rate, Chenopodium album: 90%
[9]
  herbicidal rate, Echinochloa crus-galli: 90%
[10]
  herbicidal rate, southern crabgrass: 90%
[11]
  herbicidal effect (herbicidal rate), Amaranthus viridis: 40%
[12]
  herbicidal effect (herbicidal rate), Chenopodium album: 40%
[13]
  herbicidal effect (herbicidal rate), Echinochloa crus-galli: 90%
[14]
  herbicidal effect (herbicidal rate), southern crabgrass: 90%

## CCC(C)n1oc(=O)c(Cc2ccccc2N(C(=O)C2CC2)S(=O)(=O)C(F)(F)F)c1C (centres unmarked) [Compound 1-404]
[1]
  Herbicidal rate (%) Echinochloa crus-galli: 90%
[2]
  Herbicidal rate (%) Scirpus juncoides: 90%
[3]
  Herbicidal rate (%) Lindernia pyxidaria: 90%
  Herbicidal rate (%) Monochoria vaginalis: 90%
[4]
  Herbicidal rate (%) Echinochloa crus-galli: 90%
[5]
  Herbicidal rate (%) Scirpus juncoides: 90%
[6]
  Herbicidal rate (%) Lindernia pyxidaria: 90%
  Herbicidal rate (%) Monochoria vaginalis: 90%
[7]
  herbicidal rate, Amaranthus viridis: 90%
[8]
  herbicidal rate, Chenopodium album: 90%
[9]
  herbicidal rate, Echinochloa crus-galli: 90%
[10]
  herbicidal rate, southern crabgrass: 90%
[11]
  herbicidal effect (herbicidal rate), Amaranthus viridis: 40%
[12]
  herbicidal effect (herbicidal rate), Chenopodium album: 40%
[13]
  herbicidal effect (herbicidal rate), Echinochloa crus-galli: 90%
[14]
  herbicidal effect (herbicidal rate), southern crabgrass: 90%

## CCC(CC)n1oc(=O)c(Cc2ccccc2N(C(=O)C2CC2)S(=O)(=O)C(F)(F)F)c1C [Compound 1-405]
[1]
  Herbicidal rate (%) Echinochloa crus-galli: 90%
[2]
  Herbicidal rate (%) Scirpus juncoides: 90%
[3]
  Herbicidal rate (%) Lindernia pyxidaria: 90%
  Herbicidal rate (%) Monochoria vaginalis: 90%
[4]
  Herbicidal rate (%) Echinochloa crus-galli: 90%
[5]
  Herbicidal rate (%) Scirpus juncoides: 90%
[6]
  Herbicidal rate (%) Lindernia pyxidaria: 90%
  Herbicidal rate (%) Monochoria vaginalis: 90%
[7]
  herbicidal rate, Amaranthus viridis: 90%
[8]
  herbicidal rate, Chenopodium album: 90%
[9]
  herbicidal rate, Echinochloa crus-galli: 90%
[10]
  herbicidal rate, southern crabgrass: 90%
[11]
  herbicidal effect (herbicidal rate), Amaranthus viridis: 40%
[12]
  herbicidal effect (herbicidal rate), Chenopodium album: 40%
[13]
  herbicidal effect (herbicidal rate), Echinochloa crus-galli: 90%
[14]
  herbicidal effect (herbicidal rate), southern crabgrass: 90%
